Results on 6 compounds are retold here after paper PMC4830539, “Chemical Inhibition of Histone Deacetylases 1 and 2 Induces Fetal Hemoglobin through Activation of GATA2” (PLoS ONE, 2016).

Each structure is given as a SMILES string.

Test [1] concerns HbF. On the set-up: method as in PMID 16888791, PMID 12393499, PMID 25808664, PMID 24606390, PMID 16939493. To be noted: cell lines and primary cells; cited from earlier work.
Test [2] has as its system HbF protein. Kind of test: HbF protein by flow cytometry in BM cells (CS1, CS2). The class given is cell-based, human. To be noted: 1 μM ACY-957 or 30 μM hydroxyurea. How it is done: CD34+ cells isolated from human bone marrow of healthy normal donors (Lonza, AllCells, or StemCell Technologies), referred to as BM cells throughout this work, were cultured using two distinct 2-phase culture systems. These systems have been described previously and are referred to as Culture System 1 (CS1) and Culture System 2 (CS2) throughout this work. CS1 expansion media is StemSpan SFEM (StemCell Technologies) supplemented with CC100 (StemCell Technologies), 100 U/mL penicillin and 100 μg/mL streptomycin. CC100 is a mix of Flt-3 ligand (FLT3LG), KIT ligand (KITLG), interleukin-3 (IL3), and interleukin-6 (IL6). CS1 differentiation media is StemSpan SFEM supplemented with 1 U/ml erythropoietin (EPO), 5 ng/mL IL3, 20 ng/mL KITLG, 2 μM dexamethasone, 1 μM beta-estradiol, 100 U/mL penicillin and 100 μg/mL streptomycin. CS2 expansion media is StemSpan SFEM supplemented with 1% glutamine, 40 μg/mL lipids (Sigma), 100 ng/mL KITLG, 10 ng/mL IL3, and 0.5 U/mL EPO. CS2 differentiation media is same as CS2 expansion media, except 3 U/mL EPO.
Flow cytometry was performed on a FC500 flow cytometer ([…]). Fetal hemoglobin protein was assayed using the Fetal Hemoglobin Test Kit (Life Technologies) according to manufacturer’s protocol. Samples were stained with FITC-conjugated mouse IgG1 anti-human HbF antibody (clone HbF-1, Life Technologies). Each sample was also stained with a FITC-conjugated mouse IgG1 isotype control antibody (clone X40, BD Biosciences) and used as a negative control. FETALtrol cells were used as positive controls (Trillium Diagnostics). TFRC and GYPA were detected on fresh cells by staining with 20 μL of PE-conjugated anti-human TFRC (clone M-A712, catalog 555537, BD Biosciences) and 0.5 μL of FITC- or APC-conjugated anti-human GYPA (clone GA-R2 (HIR2), catalog 559943 or 551336, BD Biosciences) in 200 μL PBS with 0.1% BSA for 40 min on ice. Forward and side scatter, or staining with 7AAD (catalog 559925, BD Biosciences), was used to identify viable cells.
To determine if the HBG mRNA induction observed in the presence of ACY-957 was associated with an increase in the HbF protein, CS1 and CS2 cells at day 5 were stained with a fluorescently conjugated anti-HbF antibody and evaluated by flow cytometry. HbF positive cells were increased by 2 to 3-fold upon treatment with ACY-957, which exceeded the response observed with hydroxyurea (Fig 2B and 2E).
Background: Flow cytometry measures light scatter and fluorescence of single cells or particles in a stream.

In test [3] the test system is erythroid progenitors. On the set-up: method as in PMID 16939493. Particulars: by suppressing the EPO-mediated survival of CD36highGYPAhigh cells; cited from earlier work.

In the case of `Nc1ccccc1NC(=O)c1ccc(CNC(=O)OCc2cccnc2)cc1` [MS-275], the HbF induction entry in test [1] is on record as “induce HbF”. As to `CCN(CC)Cc1ccc2cc(COC(=O)Nc3ccc(C(=O)NO)cc3)ccc2c1` [givinostat], the HbF induction entry in test [1] is given as “induce HbF”. As to `NC(=O)NO` [hydroxyurea, reference compound], in test [2] (CS1, day 5), the HbF positive cells is on record as 20% and the “MFI of HbF positive cells” value stood at 52. Moreover, in test [2] (CS2, day 5), the HbF positive cells came to 39% and the “MFI of HbF positive cells” value is 12. As for `C/C=C1\NC(=O)[C@H]2CSSCC/C=C/[C@H](CC(=O)N[C@H](C(C)C)C(=O)N2)OC(=O)[C@H](C(C)C)NC1=O` [romidepsin], the HbF induction result in test [1] was “induce HbF”. Further, the “effect on erythroid progenitors” value in test [3] is on record as “accumulation CD36^highGYPA^mid erythroid progenitors”. As for `CC(/C=C/C(=O)NO)=C\[C@@H](C)C(=O)c1ccc(N(C)C)cc1` [trichostatinA], the “effect on erythroid progenitors” value in test [3] is recorded as “accumulation CD36^highGYPA^mid erythroid progenitors”. On to `O=C(CCCCCCC(=O)Nc1ccccc1)NO` [vorinostat], for which the HbF induction result in test [1] is reported as “induce HbF”.
